± gives the standard deviation of the averaged measurements.

Six test systems from the supplement of paper PMC6045584 can be followed below.

Compound in assay [1]: COc1ccc(-c2cc3c(C)nc(N)nc3n([C@H]3CC[C@H](OCCO)CC3)c2=O)cn1
The experiment in a line: area under dose-response curve of surviving fraction (unscaled, Aref=0) (surviving fraction x log10(nM)); higher = more resistant. Conditions: exposure time: 5 days; dose range 0.5-1000 nM. An outline of the steps: (§1)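 Tumour cell lines in 384-well plates were exposed for five days to eight inhibitor concentrations from 0.5 to 1000 nM. Viability was read by CellTiter-Glo luminescence, normalised to DMSO-only wells, in three screens per line. Dose-response survival curves were fitted to surviving fractions by 3-parameter logistic regression in the drc R package. Area under the curve is the unscaled activity area (Aref = 0) over log10 dose.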

Compound in another assay: Cc1c(N)nc([C@H](CC(N)=O)NC[C@H](N)C(N)=O)nc1C(=O)N[C@H](C(=O)N[C@H](C)[C@@H](O)[C@H](C)C(=O)N[C@H](C(=O)NCCc1nc(-c2nc(C(=O)NCCC[S+](C)C)cs2)cs1)[C@@H](C)O)[C@@H](OC1OC(CO)C(O)C(O)C1OC1OC(CO)C(O)C(OC(N)=O)C1O)c1cnc[nH]1 [BLEOMYCIN]
The description is as above. The conditions noted are these: exposure time: 5 days; dose range 0.5-1000 nM. In short, it runs like this: as §1

Compound in assay [2]: T1, C=CCn1c(=O)c2cnc(Nc3ccc(N4CCN(C)CC4)cc3)nc2n1-c1cccc(C(C)(C)O)n1 [MK-1775]
The description is as above. The conditions noted are these: exposure time: 5 days; dose range 0.5-1000 nM. An outline of the steps: as §1

Compound in another assay: Cn1c(=O)n(-c2ccc(C(C)(C)C#N)cc2)c2c3cc(-c4cnc5ccccc5c4)ccc3ncc21 [BEZ-235]
The description is as above. Conditions: exposure time: 5 days; dose range 0.5-1000 nM. In short, it runs like this:
as §1

Compound in another assay: O=C(CCCCCCC(=O)Nc1ccccc1)NO [VORINOSTAT]
Described as above. The conditions noted are these: exposure time: 5 days; dose range 0.5-1000 nM. An outline of the steps:
as §1

Compound in assay [3]: CCc1cc(Nc2nccc(-c3c(-c4ccc(OC)c(C(=O)Nc5c(F)cccc5F)c4)nc4ccccn34)n2)c(OC)cc1N1CCC(N2CCN(S(C)(=O)=O)CC2)CC1
Described as above. Conditions: exposure time: 5 days; dose range 0.5-1000 nM. An outline of the steps: as §1

Compound in assay [4]: C[C@@H]1CN(CC(=O)Nc2ccc3c(c2)Cc2cccc(-c4cc(=O)cc(N5CCOCC5)o4)c2S3)C[C@H](C)O1
The assay is described as above. Conditions: exposure time: 5 days; dose range 0.5-1000 nM. An outline of the steps: as §1

Compound in the next assay: COc1cc2nccc(Oc3ccc(NC(=O)NC4CC4)c(Cl)c3)c2cc1C(N)=O [LENVATINIB]
The assay is described as above. Conditions: exposure time: 5 days; dose range 0.5-1000 nM. An outline of the steps:
as §1

Compound in assay [5]: T1, MK-1775
Briefly: surviving fraction relative to DMSO-only wells; higher = less growth inhibition. Conditions: exposure time: 5 days. In short, it runs like this: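 Tumour cell lines in log phase were plated in 384-well plates at 250–500 cells per well, then, after 24 hours, exposed continuously for five days to inhibitors at 0.5, 1, 5, 10, 50, 100, 500 and 1000 nM. Viability came from CellTiter-Glo luminescence, and surviving fraction is that signal normalised to the median of DMSO-only wells. Plates were read after 10 minutes at room temperature, and each line, screened three times, was kept only when replicate Pearson r was >0.7 and median Z' was >0.3.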

With HCC70 BREAST, the “area under dose-response curve” value in assay [1] stood at 2.19; in the assay with BLEOMYCIN, 2.77; with MK-1775 [2], 2.24; with BEZ-235, 2.57; with VORINOSTAT, 3.13; in assay [3], 3.48. Moreover, the results for the “area under dose-response curve” value (in assay [4]; with LENVATINIB) were 3.65 and 3.79, respectively. The surviving fraction worked out at 1.03 ± 0.065 with MK-1775 [5] (0.5 nM); 1.02 ± 0.067 in the assay with MK-1775 [5] (1 nM); 1.09 ± 0.033 in the assay with MK-1775 [5] (5 nM); 1 ± 0.11 with MK-1775 [5] (10 nM); 0.815 ± 0.062 in the assay with MK-1775 [5] (50 nM); 0.281 ± 0.021 with MK-1775 [5] (100 nM). In addition, the surviving fraction with MK-1775 [5] (500 nM) was 0.073 ± 0.0076; with MK-1775 [5] (1000 nM) it was 0.0593 ± 0.012.

For G292 BONE, the “area under dose-response curve” value was found to be 1.89 in assay [1]; 2.07 with BLEOMYCIN; 2.71 with MK-1775 [2]; 2.18 in the assay with BEZ-235; 3.05 with VORINOSTAT; 3.33 in assay [3]. In addition, the results for the “area under dose-response curve” value (in assay [4]; with LENVATINIB) were 3.2 and 2.62, respectively. For the same test system, the surviving fraction was 0.974 ± 0.034 with MK-1775 [5] (0.5 nM); 0.946 ± 0.011 in the assay with MK-1775 [5] (1 nM); 0.997 ± 0.018 with MK-1775 [5] (5 nM); 1.03 ± 0.02 with MK-1775 [5] (10 nM); 0.961 ± 0.032 with MK-1775 [5] (50 nM); 0.821 ± 0.021 in the assay with MK-1775 [5] (100 nM). Further, the surviving fraction with MK-1775 [5] (500 nM) worked out at 0.289 ± 0.014; with MK-1775 [5] (1000 nM), 0.216 ± 0.0088.

As to HMT3552 BREAST, the surviving fraction with MK-1775 [5] (0.5 nM) turned out to be 1.05; with MK-1775 [5] (1 nM) it was 1.02; with MK-1775 [5] (5 nM), 0.977; in the assay with MK-1775 [5] (10 nM), 1.01; with MK-1775 [5] (50 nM), 0.542; with MK-1775 [5] (100 nM) it was 0.142. Further, the surviving fraction stood at 0.069 with MK-1775 [5] (500 nM) and 0.072 with MK-1775 [5] (1000 nM).

Consider HCC38 BREAST, for which the “area under dose-response curve” value in assay [1] was determined as 2.96; with BLEOMYCIN it was 2.44; with MK-1775 [2], 2.33; in the assay with BEZ-235, 2.59; in the assay with VORINOSTAT, 4; in assay [4], 2.58. In the assay with LENVATINIB, the “area under dose-response curve” value was 3.98. In addition, the surviving fraction with MK-1775 [5] (0.5 nM) was 1.33 ± 0.27; with MK-1775 [5] (1 nM) it was 1.23 ± 0.048; in the assay with MK-1775 [5] (5 nM), 1.33 ± 0.15; with MK-1775 [5] (10 nM), 1.16 ± 0.072; with MK-1775 [5] (50 nM), 0.773 ± 0.24; with MK-1775 [5] (100 nM), 0.491 ± 0.065. Further, the surviving fraction was 0.0837 ± 0.006 with MK-1775 [5] (500 nM) and 0.069 ± 0.013 with MK-1775 [5] (1000 nM).

As for HMLE3 BREAST, the “area under dose-response curve” value in assay [1] was 2.08; with BLEOMYCIN, 3; with MK-1775 [2] it was 2.87; in the assay with BEZ-235 it was 2.13; in [3], 3.22; in assay [4], 3.21. Also, the “area under dose-response curve” value with LENVATINIB came out at 3.05. Also, the surviving fraction with MK-1775 [5] (0.5 nM) was determined as 0.955 ± 0.013; with MK-1775 [5] (1 nM), 0.985 ± 0.066; with MK-1775 [5] (5 nM), 1.04 ± 0.071; with MK-1775 [5] (10 nM) it was 0.999 ± 0.02; with MK-1775 [5] (50 nM) it was 0.992 ± 0.065; with MK-1775 [5] (100 nM), 0.888 ± 0.061. Moreover, the surviving fraction worked out at 0.448 ± 0.058 with MK-1775 [5] (500 nM) and 0.168 ± 0.026 with MK-1775 [5] (1000 nM).

In the case of HS578T BREAST, the “area under dose-response curve” value in assay [1] was found to be 1.97; with BLEOMYCIN it was 2.21; with MK-1775 [2], 1.96; with BEZ-235 it was 2.13; with VORINOSTAT it was 2.86; in assay [3], 2.93. Moreover, in assay [4], the “area under dose-response curve” value was 2.86. Moreover, the surviving fraction with MK-1775 [5] (0.5 nM) came out at 0.828 ± 0.085; with MK-1775 [5] (1 nM), 0.84 ± 0.11; with MK-1775 [5] (5 nM) it was 0.872 ± 0.087; with MK-1775 [5] (10 nM), 0.782 ± 0.1; with MK-1775 [5] (50 nM), 0.559 ± 0.091; with MK-1775 [5] (100 nM), 0.354 ± 0.035. The surviving fraction was 0.204 ± 0.0082 in the assay with MK-1775 [5] (500 nM) and 0.128 ± 0.0087 with MK-1775 [5] (1000 nM).
